Source: patent US11324832B2, “Tripartite modulators of endosomal G protein-coupled receptors” (Endosome Therapeutics, Inc., priority 2015, dated 2022)
pEC50: −log10 of the molar value. Where a SMILES comes first, the peptide text is derived from it. [ ]: non-standard residue; d: D form. The star is where a group is joined. X1 = CC(C)CCC[C@@H](C)[C@H]1CC[C@H]2[C@@H]3CC[C@H]4C[C@@H](O*)CC[C@]4(C)[C@H]3CC[C@]12C; NMeL = CN[C@@H](CC(C)C)C(=O)O; PEG4 = NCCOCCOCCOCCOCCC(=O)O; PEG3 = NCCOCCOCCOCCC(=O)O; Ava = NCCCCC(=O)O

Experiments:
NK1R [1] = target: T1, NK1R (Rattus norvegicus, UniProt P14600); assay: Calcium mobilization assay, agonist mode, HEK293 cells expressing NK1R; assay type: cell-based; design: Full length and truncated 6312 rat HA-NK1R have been described; expressed in transfected cells; host or cells: HEK293
From the text: GR73632 was conjugated to cholestanol (Compound 3) or ethyl ester (GR73632-ethyl ester) via a flexible PEG linker. The effect of these compounds in HEK293 cells expressing NK1R was then studied.

NK1R [2] = target: T1, NK1R; assay: FRET biosensors of compartmentalized signaling (ERK, PKC, cAMP) in NK1R-expressing HEK293 cells; assay type: cell-based; design: Full length and truncated 6312 rat HA-NK1R have been described; expressed in transfected cells; host or cells: HEK293 (transient); conditions: agonist alone, imaged over 20 min
Procedure: To study the link between NK1R trafficking and signaling, the NK1R and Förster Resonance Energy Transfer (FRET) biosensors targeted to detect activated ERK in the cytosol (CytoEKAR) or nucleus (NucEKAR, FIG. 2A), activated PKC at the plasma membrane (pmCKAR) or in the cytosol (CytoCKAR, FIG. 2C), and cAMP at the plasma membrane (pmEpac2) or in the cytosol (CytoEpac2, FIG. 2E) were expressed in HEK293 cells.
HEK293 cells were transfected with 55 ng/well rat NK1R with N-terminal HA. 11 epitope tag (HA-NK1R) or CLR plus RAMP1 and 40 ng/well FRET biosensors. FRET was assessed 48 h after transfection, following serum restriction (0.5% FBS overnight). For experiments using clathrin or dynamin siRNA, cells were transfected with 55 ng/well rat HA-NK1R, 40 ng/well FRET biosensor and 25 nM/well scrambled, clathrin or dynamin ON-TARGETplus SMARTpool siRNA (GE Dharmacon). FRET was assessed 72 h after transfection, following serum restriction (0.5% FBS overnight). Cells were equilibrated in HBSS at 37° C. and FRET was analyzed using a GE Healthcare INCell 2000 Analyzer. For GFP/RFP emission ratio analysis, cells were sequentially excited using a FITC filter (490/20) with emission measured using dsRed (605/52) and FITC (525/36) filters, and a polychroic optimized for the FITC/dsRed filter pair (Quad4). For CFP/YFP emission ratio analysis, cells were sequentially excited using a CFP filter (430/24) with emission measured using YFP (535/30) and CFP (470/24) filters, and a polychroic optimized for the CFP/YFP filter pair (Quad3). Cells were imaged every 1 min, allowing image capture of 14 wells per minute. Baseline emission ratio images were captured for 4 min. […] Cells were then stimulated with the positive control (200 nM phorbol 12,13-dibutyrate for ERK; 200 nM phorbol 12,13-dibutyrate with phosphatase inhibitor cocktail for PKC; 10 μM forskolin, 100 μM 3-isobutyl-1-methylxanthine, 100 nM PGE1 for cAMP) for 10 min to generate a maximal increase, and positive emission ratio images were captured for 4 min. Data were analyzed as described and expressed as emission ratios relative to baseline for each cell (F/F0). Cells with >10% change in F/F0 after stimulation with positive controls were selected for analysis.

NK1R [3] = target: T1, NK1R; assay: BRET between NK1R-RLuc8 and βarr1/2-YFP in HEK293 cells; assay type: cell-based; design: Full length and truncated 6312 rat HA-NK1R have been described; expressed in transfected cells; host or cells: HEK293 (transient); conditions: agonist alone
Procedure: Bioluminescence Resonance Energy Transfer (BRET) was employed to quantitatively assess the proximity of the NK1R to key regulators of GPCR trafficking (βarrs), and resident proteins of plasma (KRas) and early endosomal (Rab5a) membranes in HEK293 cells (FIG. 1A).
HEK293 cells were transfected with the following cDNAs: 1 μg NK1R-RLuc8 or 1 μg CLR-RLuc8+1 μg Myc-RAMP1+4 μg KRas-Venus, 4 μg Rab5a-Venus, 4 μg βarr1-YFP, or 4 μg βarr2-YFP; or 1 μg NK1R+0.5 μg Gαq-RLuc8+1 μg Gβ1+4 μg Gγ2-Venus; or 1 μg NK1R+0.5 μg Gαq-RLuc8+1 μg Gβ1+1 μg Gγ2+4 μg Rab5a-Venus. After 48 h, cells were equilibrated in Hank's balanced salt solution (HBSS) at 37° C., and incubated with the RLuc substrate coelenterazine h (5 μM, 15 min).

[4] = target: T2, endothelin converting enzyme 1 (Homo sapiens, UniProt P42892); conditions: cited from earlier work
T2 sequence (P42892 1-770): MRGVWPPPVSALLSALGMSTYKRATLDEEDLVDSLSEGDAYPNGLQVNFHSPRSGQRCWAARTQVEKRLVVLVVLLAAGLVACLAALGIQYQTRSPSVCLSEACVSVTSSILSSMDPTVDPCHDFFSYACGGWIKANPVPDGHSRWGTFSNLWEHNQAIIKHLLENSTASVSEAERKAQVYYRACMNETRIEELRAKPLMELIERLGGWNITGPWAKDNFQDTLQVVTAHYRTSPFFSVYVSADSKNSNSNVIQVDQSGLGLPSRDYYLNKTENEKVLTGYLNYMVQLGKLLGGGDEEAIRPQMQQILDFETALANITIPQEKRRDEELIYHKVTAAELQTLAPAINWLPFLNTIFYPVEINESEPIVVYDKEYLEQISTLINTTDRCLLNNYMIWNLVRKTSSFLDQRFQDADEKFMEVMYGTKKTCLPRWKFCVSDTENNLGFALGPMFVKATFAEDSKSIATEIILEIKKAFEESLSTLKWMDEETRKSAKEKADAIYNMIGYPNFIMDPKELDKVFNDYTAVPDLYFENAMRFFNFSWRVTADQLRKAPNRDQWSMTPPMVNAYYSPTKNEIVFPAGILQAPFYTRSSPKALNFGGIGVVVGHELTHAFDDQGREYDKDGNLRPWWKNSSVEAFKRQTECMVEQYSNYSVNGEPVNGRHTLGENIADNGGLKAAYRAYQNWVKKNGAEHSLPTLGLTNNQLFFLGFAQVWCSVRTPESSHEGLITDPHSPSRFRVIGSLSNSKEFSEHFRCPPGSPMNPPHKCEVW

T1 sequence (P14600 whole entry, the tested form may be a part): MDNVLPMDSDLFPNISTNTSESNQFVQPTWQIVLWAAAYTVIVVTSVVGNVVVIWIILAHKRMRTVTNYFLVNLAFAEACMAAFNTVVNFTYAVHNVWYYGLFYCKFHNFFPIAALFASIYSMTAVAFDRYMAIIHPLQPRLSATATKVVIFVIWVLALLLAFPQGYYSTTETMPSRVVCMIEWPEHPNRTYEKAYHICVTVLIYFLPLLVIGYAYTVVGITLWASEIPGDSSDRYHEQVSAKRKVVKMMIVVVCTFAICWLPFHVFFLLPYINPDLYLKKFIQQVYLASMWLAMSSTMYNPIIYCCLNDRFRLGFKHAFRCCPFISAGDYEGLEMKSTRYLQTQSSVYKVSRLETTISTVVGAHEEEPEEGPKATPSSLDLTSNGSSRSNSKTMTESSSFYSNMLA

SMILES	decrease in potency compared to the free agonist (NK1R [1]; calcium mobilization) [fold]	cytosolic ERK activation (FRET CytoEKAR) (NK1R [2])	nuclear ERK activation (FRET NucEKAR) (NK1R [2])	recruitment of βarrs (BRET NK1R-RLuc8 / βarr1-YFP, βarr2-YFP) (NK1R [3])	susceptibility to cleavage by endothelin converting enzyme 1 [4]	pEC50 (NK1R [1]; HEK293 cells expressing NK1R, given as logEC50 (negative))
CSCC[C@H](NC(=O)[C@H](CC(C)C)N(C)C(=O)[C@@H]1CCCN1C(=O)[C@H](Cc1ccccc1)NC(=O)[C@H](Cc1ccccc1)NC(=O)CCCCNC(=O)CCOCCOCCOCCOCCNC(=O)CCOCCOCCOCCNC(=O)CCOCCOCCOCCOCCNC(=O)[C@H](CC(=O)O[C@H]1CC[C@@]2(C)[C@@H](CC[C@@H]3[C@@H]2CC[C@]2(C)[C@@H]([C@H](C)CCCC(C)C)CC[C@@H]32)C1)NC(C)=O)C(N)=O [Compound 3] (Ac-D(X1)[PEG4][PEG3][PEG4][Ava]FFP[NMeL]M-NH2)	~100	no cytosolic ERK	stimulates sustained nuclear ERK phosphorylation	does not induce recruitment of βarrs		
CSCC[C@H](NC(=O)[C@H](CC(C)C)N(C)C(=O)[C@@H]1CCCN1C(=O)[C@H](Cc1ccccc1)NC(=O)[C@H](Cc1ccccc1)NC(=O)CCCCN)C(N)=O [GR73632, Ava-Phe-Phe-Pro-N-MeLeu-Met-NH2] (H-[Ava]FFP[NMeL]M-NH2)		stimulated sustained cytosolic and nuclear ERK phosphorylation	stimulated sustained cytosolic and nuclear ERK phosphorylation		not susceptible to cleavage	9.03
